Experimental data reported in article PMC6080781, “ATP competes with PIP2 for binding to gelsolin” (PLoS ONE, 2018).
Read-outs that look alike come from different tables or passages of the source.

Experiments:
gelsolin [1] = details: equilibrium dialysis, high NaCl concentrations, cited from earlier work
gelsolin [2] = target: T1, gelsolin (Homo sapiens, UniProt P06396); assay: Steady-state fluorescence anisotropy of ATP-N binding to gelsolin
T1 construct: His tag (cleaved yes); made in house; host or cells: E. coli Rosetta2 (DE3) pLysS, pSY5 plasmid
T1 sequence (P06396 28-782): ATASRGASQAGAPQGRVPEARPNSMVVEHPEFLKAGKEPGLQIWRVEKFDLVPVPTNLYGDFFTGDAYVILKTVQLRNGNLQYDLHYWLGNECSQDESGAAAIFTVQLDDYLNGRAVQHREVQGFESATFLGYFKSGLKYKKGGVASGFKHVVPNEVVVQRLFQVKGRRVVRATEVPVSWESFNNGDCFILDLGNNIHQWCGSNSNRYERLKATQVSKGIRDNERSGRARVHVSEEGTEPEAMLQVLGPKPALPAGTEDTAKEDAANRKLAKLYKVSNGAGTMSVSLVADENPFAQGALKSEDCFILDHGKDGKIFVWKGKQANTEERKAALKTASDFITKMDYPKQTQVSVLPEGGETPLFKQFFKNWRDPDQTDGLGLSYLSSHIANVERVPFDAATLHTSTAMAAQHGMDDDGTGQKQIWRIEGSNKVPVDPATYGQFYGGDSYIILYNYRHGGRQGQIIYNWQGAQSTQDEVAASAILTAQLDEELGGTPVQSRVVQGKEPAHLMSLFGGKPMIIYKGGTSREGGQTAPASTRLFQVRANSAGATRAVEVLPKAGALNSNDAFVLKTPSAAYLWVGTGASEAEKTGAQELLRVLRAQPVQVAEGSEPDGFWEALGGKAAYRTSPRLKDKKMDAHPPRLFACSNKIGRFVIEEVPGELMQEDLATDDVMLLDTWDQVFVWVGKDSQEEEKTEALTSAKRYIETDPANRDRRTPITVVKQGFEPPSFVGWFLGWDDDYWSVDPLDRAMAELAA
Experimental: (§1) His-tagged human wild-type gelsolin was expressed in E. coli strain Rosetta2 (DE3) pLysS cells from a pSY5 plasmid. […] Traces of calcium were removed by dialysis (2 mM Tris-HCl, 1 mM EGTA, pH 7.4, overnight). Rabbit skeletal muscle actin was prepared from acetone powder (Pel-Freez Biologicals) in a protocol modified from Spudich and Watt. Actin was stored in buffer A (2 mM Tris-HCl, 0.2 mM ATP (ATP disodium trihydrate, Sigma-Aldrich), 0.1 mM CaCl2 (pCa 4), 0.1 mM DTT and 0.005% NaN3, pH 7.4). Alexa Fluor^TM 488 C5 Maleimide (Life Technologies) was used to label cysteine residues of gelsolin based on the manufacturer’s recommendations (Thermo Fisher Scientific).
(§2) We used a fluorescent derivative of PIP2 (PtdIns-(4,5)-P2-fluorescein, Cayman Chemicals, NU-10010388, λex = 493 nm, λem = 520 nm, abbreviated as PIP2-F) and a fluorescent derivative of ATP (N^6-(6-amino)hexyl-ATP-ATTO-532, Jena Bioscience, NU-805-532, λex = 532 nm, λem = 553 nm, abbreviated as ATP-N) as probes for the binding of PIP2 and ATP to gelsolin. Fluorescence intensities were measured on a Safire^2 monochromator microplate reader (TECAN) at 22°C. Steady-state fluorescence anisotropy values were determined according to Eq 1 [65], where IVV and IVH, respectively, are the intensities of vertically and horizontally polarized emission on excitation with vertically polarized light, with the correction factor, G, being the ratio of IVH/IVV.
(§3) The dissociation constants for ATP and PIP2 were calculated using a hyperbolic model from anisotropy data that had reached saturation during the gelsolin titrations Eq 2: r=rf+(rb−rf)(Kd+[G]+[L]−(Kd+[G]+[L])^2−4[G][L]/2[L]) (2) where rf is the anisotropy of free ligand, rb is the anisotropy of gelsolin-bound ligand, [L] is the total concentration of ligand, Kd is the dissociation constant and [G] is the total concentration of gelsolin. The anisotropy of 0.5 μM ATP-N was measured in the presence of gelsolin concentrations: 0, 0.2, 1.5, 2, 3, 5 and 8 μM. Saturation was evident at 5 μM characterized by an anisotropy value of 0.15 ± 0.006. The calcium and magnesium sensitivities of ATP binding to gelsolin were characterized by the change in anisotropy of solutions containing 0.5 μM ATP-N in the presence of 5 μM of gelsolin over a range of divalent cation concentrations of pCa 2–12 or pMg 1–12, where pCa and pMg refer to[…]. […] Anisotropy of 0.5 μM or 0.25 μM solutions of PIP2-F in the presence of 5 μM gelsolin was used to probe the changes in binding of the complexes under different calcium, magnesium, salt and ATP conditions.

[3] = Fluorescence emission of ATP-N with cations in the absence of gelsolin (precipitation); assay type: physicochemical
Experimental: Supplementary file pone.0201826.s005.pdf: S5 Fig Assessment of the effects of calcium and ATP on the binding of ATP-N and PIP2-F to gelsolin. (A) Kds were calculated from the fit data with Eq 2 of gelsolin:PIP2-F binding under different calcium concentrations in the absence or presence of ATP. In the absence of ATP, PIP2-F (0.5 μM) binds to gelsolin, as reflected by thehigh affinity, across a wide range of calcium concentrations. […] (B) In the absence of gelsolin, calcium directly precipitates ATP-N (C, open triangles) with a half-maximum value of 70.4 ± 0.7 μM. Magnesium has no effect on the fluorescence emission of ATP-N either in the absence (M, orange circles) or presence of 10 μM calcium (MC, purple squares). Data were fitted with simple sigmoidal curves. (C) The reported FURA-2FF dissociation constant for calcium ions is 25 μM (A.G. Scientific Inc.). The calcium-dependent fluorescence emission profile of FURA-2FF (2 μM) over pCa range of 5–7 was similar in the presence and absence of 20 μM PIP2, which were fitted with simple sigmoidal curves. […] The measurement was carried out with a Perkin Elmer LS-55 spectrofluorimeter (λex = 340 nm, λem = 505 nm). (PDF) Click here for additional data file.

gelsolin [4] = target: T1, gelsolin; assay: Steady-state fluorescence anisotropy of PIP2-F binding to gelsolin
Experimental: as §1, §2
as §3, with “Saturation was evident at 5 μM characterized by an anisotropy value of 0.15 ± 0.006.” left out

[5] = design: method as in A.G. Scientific Inc.; details: ref A.G. Scientific Inc.; read-out: dissociation constant for calcium ions; cited from earlier work
[6] = Critical micelle concentration by dynamic light scattering; assay type: physicochemical
Experimental: tested, PIP2-F was free from micelle formation at concentrations of 0.5 µM or below, whereas […]
Methods: The critical micelle concentrations of PIP2 and 1-(1-octadecanoyl-fluorescein-2R-octadecanoylphosphatidyl)inositol-4,5-bisphosphate (Cayman Chemical, abbreviated as PIP2-F) were determined by dynamic light scattering (Huang et al., 2011). Fifty microliter samples were prepared by serial dilution of PIP2 or PIP2-F into a low salt buffer (2 mM Tris-HCl, pH 7.4), or the same buffer supplemented with 100 mM KCl, 1 mM MgCl2, and/or 1 mM CaCl2. After incubation for 30 min, the samples were centrifuged at 15,000 x g for 10 min, transferred into a 384-well clear bottom plate, and light scattering was measured using a Wyatt Dynapro plate reader at room temperature. The concentrations of PIP2-F were subsequently determined by light absorbance at 494 nm with a Nanodrop spectrophotometer. […]
Huang, W., Jiang, D., Wang, X., Wang, K., Sims, C. E., Allbritton, N. L. and Zhang, Q.

[7] = 0.5 μM ATP-N, 5 μM gelsolin, sigmoidal fitting

In the case of `Nc1ncnc2c1ncn2[C@@H]1O[C@H](COP(=O)(O)OP(=O)(O)O)[C@@H](O)[C@H]1O` [ADP], the association with gelsolin (gelsolin [1]) is given as “no significant association”.
In the case of `Nc1nc2c(ncn2[C@@H]2O[C@H](COP(=O)(O)OP(=O)(O)O)[C@@H](O)[C@H]2O)c(=O)[nH]1` [GDP], the association with gelsolin (gelsolin [1]) is given as “no significant association”.
In the case of `Nc1nc2c(ncn2[C@@H]2O[C@H](COP(=O)(O)OP(=O)(O)OP(=O)(O)O)[C@@H](O)[C@H]2O)c(=O)[nH]1` [GTP], the Kd (gelsolin [1]; read-out: dissociation constant for gelsolin) is listed as 1.8 µM.
In the case of `[Ca+2]` [calcium], the “inflection point (pCa) of ATP-N anisotropy decrease” value (gelsolin [2]; [7]) is reported as 5.2, the IC50 (gelsolin [2]; 0.5 μM ATP-N, 5 μM gelsolin, read-out: calcium concentration at which 50% of ATP-N remains bound to gelsolin) is reported as 6.3 ± 0.2 µM and the “half-maximum value of calcium for precipitation of ATP-N” value [3] is reported as 70.4 ± 0.7 µM.
With `[Mg+2]` [magnesium] the “magnesium concentration above which the ATP effect on gelsolin/PIP2-F is diminished” value (gelsolin [4]; 0.5 mM ATP, 0.5 μM PIP2-F, 5 μM gelsolin) was “above 7 mM”, the “inflection point (pMg) of ATP-N anisotropy decrease” value (gelsolin [2]; [7]) was 2.3 and the IC50 (gelsolin [2]; 0.5 μM ATP-N, 5 μM gelsolin, read-out: magnesium concentration at which 50% of ATP-N remains bound to gelsolin) was 5000 ± 1100 µM. The “effect on the fluorescence emission of ATP-N” value ([3]; absence or presence of 10 μM calcium) was “no effect”.
For FURA-2FF, the Kd [5] is listed as 25 µM.
For N^6-(6-amino)hexyl-ATP-ATTO-532 [ATP-N], the “anisotropy of ATP-N at saturation” value (gelsolin [2]; 0.5 μM ATP-N, 5 μM gelsolin) was 0.15 ± 0.006, the Kd (gelsolin [2]; 0.5 μM ATP-N, absence of divalent cations) was 0.71 ± 0.52 µM and the Kd (gelsolin [2]; 50 mM KCl, 1 mM MgCl2 (pMg 3), titration with gelsolin) was 1.8 µM. It also gave a Kd (gelsolin [2]; 100 mM KCl) of 1.27 ± 0.6 µM, a Kd (gelsolin [2]; 100 mM KCl, 1 mM MgCl2 (pMg 3)) of 1.58 ± 0.85 µM and a Kd (gelsolin [2]; 120 mM KCl) of 1.42 ± 0.27 µM. It also gave a Kd (gelsolin [2]; 120 mM KCl, 1 mM MgCl2 (pMg 3)) of 2.34 ± 0.73 µM and a Kd (gelsolin [2]; actin polymerization conditions, above 100 μM calcium) of 8.05 ± 1.32 µM.
For PtdIns-(4,5)-P2-fluorescein [PIP2-F], the “steady-state anisotropy of PIP2-F with gelsolin” value (gelsolin [4]; 0.5 μM PIP2-F, 5 μM gelsolin, no ATP, 1 mM Ca2+ (pCa 3)) was 0.04, the “steady-state anisotropy of PIP2-F with gelsolin” value (gelsolin [4]; 0.5 μM PIP2-F, 5 μM gelsolin, no ATP, ≈0–10 μM Ca2+ (pCa 15–5)) was “approximately 0.12” and the Kd (gelsolin [4]; 0.5 μM PIP2-F, absence of divalent cations, read-out: Kd of PIP2-F for gelsolin) was 0.84 ± 0.39 µM. For the same compound, the Kd (gelsolin [4]; 100 mM KCl, read-out: Kd of PIP2-F for gelsolin) was 1.35 ± 0.7 µM, the Kd (gelsolin [4]; 120 mM KCl, read-out: Kd of PIP2-F for gelsolin) was 3.12 ± 1.7 µM and the Kd (gelsolin [4]; actin polymerization conditions (10 μM Ca2+, 1 mM Mg2+, 50 mM K+), absence of ATP, read-out: Kd of PIP2-F for gelsolin) was 2.7 ± 0.2 µM. The Kd (gelsolin [4]; no ATP, 1–10 μM calcium (pCa 6–5), absence of KCl and magnesium, read-out: Kd of PIP2-F/gelsolin interaction) was less than 1 µM, the Kd (gelsolin [4]; no ATP, entire calcium range, absence of KCl and magnesium, read-out: Kd of PIP2-F/gelsolin interaction) was less than 20 µM and the “CMC of PIP2-F” value ([6]; 1 mM CaCl2 with 100 mM KCl or 100 mM KCl and 1 mM MgCl2) was ~ 0.5 μM. The “CMC of PIP2-F” value ([6]; absence of calcium) was ~ 10 μM and the micelle formation ([6]; at or below 0.5 μM, buffer conditions tested) was “failed to form micelles”.
